Test results reported in ChEMBL document CHEMBL1136552, “Synthesis and preliminary cytotoxicity of nitrogen mustard derivatives of distamycin A” (Bioorg Med Chem Lett, 2003).

test system: K562; assay: Cytotoxicity against K562 leukemia cells in vitro, expressed as the minimal concentration necessary to inhibit incorporation of [3H]thymidine by 50%; type: functional, cell-based; conditions: Homo sapiens, K562, 48 h

| SMILES | IC50 [nM] |
| --- | --- |
| O=C(O)CCCc1ccc(N(CCCl)CCCl)cc1 [CHLORAMBUCIL] | 35000 |
| CCCC(=O)Nc1cc(/C=C/C(=O)Nc2cc(C(=O)Nc3ccc(N(CCCl)CCCl)cc3)n(C)c2)n(C)c1 | 210 |
| CCCONc1cc(C(=O)Nc2ccc(N(CCCl)CCCl)cc2)n(C)c1 | 950 |
| CCCC(=O)Nc1cc(/C=C/C(=O)Nc2ccc(N(CCCl)CCCl)cc2)n(C)c1 | 1200 |
| CCCONc1cc(C(=O)Nc2cc(C(=O)Nc3cc(C(=O)Nc4ccc(N(CCCl)CCCl)cc4)n(C)c3)n(C)c2)n(C)c1 | 30 |
| CCCONc1cc(C(=O)Nc2cc(C(=O)Nc3ccc(N(CCCl)CCCl)cc3)n(C)c2)n(C)c1 | 250 |
